Measurements reported in US8012956B2, “Tropane compounds” (Exelixis, Inc., priority 2007, dated 2011).

These molecules were tested against HSP90 (Homo sapiens, UniProt P07900) (assay: HSP90 inhibition (HSP90 IC50)).
Assay type: biochemical

SMILES | IC50 [nM]
COc1cccc(C(=O)N[C@H]2C[C@H]3CC[C@@H](C2)N3c2ccc(C(=O)NCCc3cccnc3)cn2)c1C [6-[3-endo-({[2-methyl-3-(methyloxy)phenyl]carbonyl}amino)-8-azabicyclo[3.2.1]oct-8-yl]-N-(2-pyridin-3-ylethyl)pyridine-3-carboxamide] | 1000 to 2000
COc1cccc(C(=O)N[C@H]2C[C@H]3CC[C@@H](C2)N3c2ccc(C(=O)NCCc3ccncc3)cn2)c1C [6-[3-endo-({[2-methyl-3-(methyloxy)phenyl]carbonyl}amino)-8-azabicyclo[3.2.1]oct-8-yl]-N-(2-pyridin-4-ylethyl)pyridine-3-carboxamide] | 1000 to 2000
COc1cccc(C(=O)N[C@H]2C[C@H]3CC[C@@H](C2)N3c2ccc(C(=O)Nc3cccc(C)c3)cn2)c1C [6-[3-endo-({[2-methyl-3-(methyloxy)phenyl]carbonyl}amino)-8-azabicyclo[3.2.1]oct-8-yl]-N-(3-methylphenyl)pyridine-3-carboxamide] | 2000 to 10000
COc1cccc(C(=O)N[C@H]2C[C@H]3CC[C@@H](C2)N3c2ccc(C(=O)NCCCN3CCOCC3)cn2)c1C [6-[3-endo-({[2-methyl-3-(methyloxy)phenyl]carbonyl}amino)-8-azabicyclo[3.2.1]oct-8-yl]-N-(3-morpholin-4-ylpropyl)pyridine-3-carboxamide] | 500 to 999
COc1cccc(C(=O)N[C@H]2C[C@H]3CC[C@@H](C2)N3c2ccc(C(=O)Nc3ccc(C)cc3)cn2)c1C [6-[3-endo-({[2-methyl-3-(methyloxy)phenyl]carbonyl}amino)-8-azabicyclo[3.2.1]oct-8-yl]-N-(4-methylphenyl)pyridine-3-carboxamide] | 1000 to 2000
COc1cccc(C(=O)N[C@H]2C[C@H]3CC[C@@H](C2)N3c2ccc(C(=O)NCc3cccnc3)cn2)c1C [6-[3-endo-({[2-methyl-3-(methyloxy)phenyl]carbonyl}amino)-8-azabicyclo[3.2.1]oct-8-yl]-N-(pyridin-3-ylmethyl)pyridine-3-carboxamide] | < 500
COc1cccc(C(=O)NC2CC3CCC(C2)N3c2ccc(C(=O)NCC3CCCO3)cn2)c1C (stereo not drawn) [6-[3-endo-({[2-methyl-3-(methyloxy)phenyl]carbonyl}amino)-8-azabicyclo[3.2.1]oct-8-yl]-N-(tetrahydrofuran-2-ylmethyl)pyridine-3-carboxamide] | 2000 to 10000
COc1cccc(C(=O)N[C@H]2C[C@H]3CC[C@@H](C2)N3c2ccc(C(=O)NCc3ccc(N4CCN(CC(C)C)CC4)cc3)cn2)c1C [6-[3-endo-({[2-methyl-3-(methyloxy)phenyl]carbonyl}amino)-8-azabicyclo[3.2.1]oct-8-yl]-N-({4-[4-(2-methylpropyl)piperazin-1-yl]phenyl}methyl)pyridine-3-carboxamide] | < 500
COc1cccc(C(=O)N[C@H]2C[C@H]3CC[C@@H](C2)N3c2ccc(C(=O)NCc3ccc(OC(F)(F)F)cc3)cn2)c1C [6-[3-endo-({[2-methyl-3-(methyloxy)phenyl]carbonyl}amino)-8-azabicyclo[3.2.1]oct-8-yl]-N-({4-[(trifluoromethyl)oxy]phenyl}methyl) pyridine-3-carboxamide] | 2000 to 10000
COc1cccc(C(=O)NC2CC3CCC(C2)N3c2ccc(C(=O)NC(C)c3ccc(N4CCNCC4)nc3)cn2)c1C (stereo not drawn) [6-[3-endo-({[2-methyl-3-(methyloxy)phenyl]carbonyl}amino)-8-azabicyclo[3.2.1]oct-8-yl]-N-[1-(6-piperazin-1-ylpyridin-3-yl)ethyl]pyridine-3-carboxamide] | < 500
COc1cccc(C(=O)N[C@H]2C[C@H]3CC[C@@H](C2)N3c2ccc(C(=O)NC3CCN(Cc4ccccc4)CC3)cn2)c1C [6-[3-endo-({[2-methyl-3-(methyloxy)phenyl]carbonyl}amino)-8-azabicyclo[3.2.1]oct-8-yl]-N-[1-(phenylmethyl)piperidin-4-yl]pyridine-3-carboxamide] | < 500
COc1cccc(C(=O)NC2CC3CCC(C2)N3c2ccc(C(=O)NCCC3CCCN3C)cn2)c1C (stereo not drawn) [6-[3-endo-({[2-methyl-3-(methyloxy)phenyl]carbonyl}amino)-8-azabicyclo[3.2.1]oct-8-yl]-N-[2-(1-methylpyrrolidin-2-yl)ethyl]pyridine-3-carboxamide] | 500 to 999
COCCNC(=O)c1ccc(N2[C@@H]3CC[C@H]2C[C@@H](NC(=O)c2cccc(OC)c2C)C3)nc1 [6-[3-endo-({[2-methyl-3-(methyloxy)phenyl]carbonyl}amino)-8-azabicyclo[3.2.1]oct-8-yl]-N-[2-(methyloxy)ethyl]pyridine-3-carboxamide] | 2000 to 10000
COc1ccccc1NC(=O)c1ccc(N2[C@@H]3CC[C@H]2C[C@@H](NC(=O)c2cccc(OC)c2C)C3)nc1 [6-[3-endo-({[2-methyl-3-(methyloxy)phenyl]carbonyl}amino)-8-azabicyclo[3.2.1]oct-8-yl]-N-[2-(methyloxy)phenyl]pyridine-3-carboxamide] | 2000 to 10000
COc1cccc(C(=O)N[C@H]2C[C@H]3CC[C@@H](C2)N3c2ccc(C(=O)NCCSC)cn2)c1C [6-[3-endo-({[2-methyl-3-(methyloxy)phenyl]carbonyl}amino)-8-azabicyclo[3.2.1]oct-8-yl]-N-[2-(methylthio)ethyl]pyridine-3-carboxamide] | 1000 to 2000
COc1cccc(C(=O)N[C@H]2C[C@H]3CC[C@@H](C2)N3c2ccc(C(=O)NCCCN3CCCC3=O)cn2)c1C [6-[3-endo-({[2-methyl-3-(methyloxy)phenyl]carbonyl}amino)-8-azabicyclo[3.2.1]oct-8-yl]-N-[3-(2-oxopyrrolidin-1-yl)propyl]pyridine-3-carboxamide] | 500 to 999
COc1cccc(C(=O)N[C@H]2C[C@H]3CC[C@@H](C2)N3c2ccc(C(=O)NCCCN3CCN(C)CC3)cn2)c1C [6-[3-endo-({[2-methyl-3-(methyloxy)phenyl]carbonyl}amino)-8-azabicyclo[3.2.1]oct-8-yl]-N-[3-(4-methylpiperazin-1-yl)propyl]pyridine-3-carboxamide] | 500 to 999
COc1cccc(NC(=O)c2ccc(N3[C@@H]4CC[C@H]3C[C@@H](NC(=O)c3cccc(OC)c3C)C4)nc2)c1 [6-[3-endo-({[2-methyl-3-(methyloxy)phenyl]carbonyl}amino)-8-azabicyclo[3.2.1]oct-8-yl]-N-[3-(methyloxy)phenyl]pyridine-3-carboxamide] | 2000 to 10000
COCCCNC(=O)c1ccc(N2[C@@H]3CC[C@H]2C[C@@H](NC(=O)c2cccc(OC)c2C)C3)nc1 [6-[3-endo-({[2-methyl-3-(methyloxy)phenyl]carbonyl}amino)-8-azabicyclo[3.2.1]oct-8-yl]-N-[3-(methyloxy)propyl]pyridine-3-carboxamide] | 500 to 999
CCCOCCCNC(=O)c1ccc(N2[C@@H]3CC[C@H]2C[C@@H](NC(=O)c2cccc(OC)c2C)C3)nc1 [6-[3-endo-({[2-methyl-3-(methyloxy)phenyl]carbonyl}amino)-8-azabicyclo[3.2.1]oct-8-yl]-N-[3-endo-(propyloxy)propyl]pyridine-3-carboxamide] | 500 to 999
COc1cccc(C(=O)N[C@H]2C[C@H]3CC[C@@H](C2)N3c2ccc(C(=O)Nc3ccc(C4CCN(C)CC4)cc3)cn2)c1C [6-[3-endo-({[2-methyl-3-(methyloxy)phenyl]carbonyl}amino)-8-azabicyclo[3.2.1]oct-8-yl]-N-[4-(1-methylpiperidin-4-yl)phenyl]pyridine-3-carboxamide] | 1000 to 2000
COc1cccc(C(=O)N[C@H]2C[C@H]3CC[C@@H](C2)N3c2ccc(C(=O)Nc3ccc(N4CCN(C)CC4)cc3)cn2)c1C [6-[3-endo-({[2-methyl-3-(methyloxy)phenyl]carbonyl}amino)-8-azabicyclo[3.2.1]oct-8-yl]-N-[4-(4-methylpiperazin-1-yl)phenyl]pyridine-3-carboxamide] | < 500
COc1ccc(NC(=O)c2ccc(N3[C@@H]4CC[C@H]3C[C@@H](NC(=O)c3cccc(OC)c3C)C4)nc2)cc1 [6-[3-endo-({[2-methyl-3-(methyloxy)phenyl]carbonyl}amino)-8-azabicyclo[3.2.1]oct-8-yl]-N-[4-(methyloxy)phenyl]pyridine-3-carboxamide] | 500 to 999
COc1cccc(C(=O)NC2CC3CCC(C2)N3c2ccc(C(=O)N[C@H](C)c3ccccc3)cn2)c1C (stereo partly drawn) [6-[3-endo-({[2-methyl-3-(methyloxy)phenyl]carbonyl}amino)-8-azabicyclo[3.2.1]oct-8-yl]-N-[(1R)-1-phenylethyl]pyridine-3-carboxamide] | 2000 to 10000
CC[C@H](C)NC(=O)c1ccc(N2C3CCC2CC(NC(=O)c2cccc(OC)c2C)C3)nc1 (stereo partly drawn) [6-[3-endo-({[2-methyl-3-(methyloxy)phenyl]carbonyl}amino)-8-azabicyclo[3.2.1]oct-8-yl]-N-[(1S)-1-methylpropyl]pyridine-3-carboxamide] | 2000 to 10000
COc1cccc(C(=O)NC2CC3CCC(C2)N3c2ccc(C(=O)N[C@@H](C)c3ccccc3)cn2)c1C (stereo partly drawn) [6-[3-endo-({[2-methyl-3-(methyloxy)phenyl]carbonyl}amino)-8-azabicyclo[3.2.1]oct-8-yl]-N-[(1S)-1-phenylethyl]pyridine-3-carboxamide] | < 500
CC[C@H](NC(=O)c1ccc(N2C3CCC2CC(NC(=O)c2cccc(OC)c2C)C3)nc1)c1ccccc1 (stereo partly drawn) [6-[3-endo-({[2-methyl-3-(methyloxy)phenyl]carbonyl}amino)-8-azabicyclo[3.2.1]oct-8-yl]-N-[(1S)-1-phenylpropyl]pyridine-3-carboxamide] | 500 to 999
COc1cccc(C(=O)N[C@H]2C[C@H]3CC[C@@H](C2)N3c2ccc(C(=O)NCc3c(F)ccc(F)c3F)cn2)c1C [6-[3-endo-({[2-methyl-3-(methyloxy)phenyl]carbonyl}amino)-8-azabicyclo[3.2.1]oct-8-yl]-N-[(2,3,6-trifluorophenyl)methyl]pyridine-3-carboxamide] | 500 to 999
COc1cccc(C(=O)N[C@H]2C[C@H]3CC[C@@H](C2)N3c2ccc(C(=O)NCc3cc(F)c(F)cc3F)cn2)c1C [6-[3-endo-({[2-methyl-3-(methyloxy)phenyl]carbonyl}amino)-8-azabicyclo[3.2.1]oct-8-yl]-N-[(2,4,5-trifluorophenyl)methyl]pyridine-3-carboxamide] | 500 to 999
